Here are results for eight molecules from paper PMC8433833, “Heteroleptic Oxidovanadium(V) Complexes with Activity against Infective and Non-Infective Stages of Trypanosoma cruzi” (Molecules, 2021).

Assay [1] deals with VERO cells. Put plainly: Cytotoxicity on VERO cells (MTT assay). Type of assay: cell-based, African green monkeys. Particulars: Primates, 24 h, read-out: IC50 VERO ± SD. How it is done: VERO cells. VERO cells (ATCC CCL81, Manassas, VA, USA) were used as mammalian cell model for testing unspecific cytotoxicity. This cell lineage was isolated from kidney epithelial cells from African green monkeys and is widely used for phenotypic screening of drugs as it is regarded as a normal cell derived from epithelial tissue.
Cells were cultured in RPMI medium (Gibco, Grand Island, NY, USA) supplemented with 10% heat inactivated fetal bovine serum, penicillin (100 units/mL) and streptomycin (100 µg/mL) at 37 °C in a humidified 5% CO2 incubator. For maintenance, confluent cells were washed with PBS, incubated for 3 min with trypsin-EDTA (Gibco), diluted and re-plated.
The compounds were initially dissolved in DMSO (stock concentration). […]
For the cytotoxicity assay, 10,000 cells per well were seeded in a 96-well plate in RPMI medium and were incubated at 37 °C in a 5% CO2 atmosphere. […] Cell viability was assessed using MTT (3-(4, 5-dimethylthiazolyl-2)-2, 5-diphenyltetrazolium bromide) assay, where MTT is reduced by metabolically active cells to generate reducing equivalents such as NADH and NADPH, resulting in the formation of an intracellular purple formazan which can be solubilized by the addition of DMSO. […] Plates were kept for 15 min with agitation and absorbance was measured at 570 nm in a Thermo Scientific Varioskan® Flash Multimode instrument (Waltham, MA, USA). […]
On the technique in general: Tetrazolium dyes change colour on reduction, which living cells bring about.

For assay [2], the system named is T. cruzi epimastigotes (CL Brener strain). Nature of the assay: In vitro activity against epimastigotes of T. cruzi (alamar Blue). Particulars: for IC50: Trypanosoma cruzi, 24 h, read-out: IC50 Epimastigotes T. cruzi ± SD. It is filed as cell-based, Trypanosoma cruzi. A general note: Alamar Blue is a resazurin reagent that responds to reducing activity.
In assay [3] the test system is T. cruzi trypomastigotes (CL Brener strain). Put plainly: In vitro activity against cell-derived trypomastigotes of T. cruzi (alamar Blue). Particulars: for IC50: Trypanosoma cruzi, 24 h, read-out: IC50 Trypomastigotes T. cruzi ± SD. Type of assay: cell-based, Trypanosoma cruzi.
A further assay concerns calf thymus DNA (ctDNA). Nature of the assay: Competitive binding to {DNA-EB} adduct by fluorescence. Conditions: ctDNA 1.5 μM, EB 0.75 μM, 10 mM Tris-HCl pH 7.4, DMSO ≤5% v/v. On the procedure:
Experiments for competitive binding to calf thymus DNA (ctDNA, SIGMA, Type I, No. D-1501, St. […] Millipore water was used for the preparation of solutions of the complexes for the studies and for buffer solution. Fluorescence measurements were performed as titration using a fixed concentration of ctDNA and EB while gradually increasing the concentration of the [V^VO(IN-2H)(L2-H)] complex, L2 and IN free ligands. ctDNA stock solutions were prepared by hydrating ctDNA in Tris-HCl buffer (1 mg mL^−1, ~2 mM nuc^−1). This solution was allowed to stand at 4 °C. The concentration of the stock solution was determined by UV spectrophotometry using the molar absorption coefficient ε (260 nm) = 6600 M^−1cm^−1nuc^−1 [76]. An EB 0.5 mM solution was prepared in Tris-HCl buffer. Due to the low solubility of the complexes in aqueous media, DMSO was used to prepare concentrated stock solutions, followed by appropriate dilution. […] Fluorescence spectra were recorded from 540 nm to 680 nm at an excitation wavelength of 510 nm on a Shimadzu RF 5301 spectrofluorimeter (Kyoto, Japan) and in a 10.0 × 10.0 mm^2 quartz cuvette. Samples with only compounds and ctDNA (without EB) were used as blanks and subtracted from the sample spectra. […] KSV were determined from the plot of F0/F versus [Q].

Assay [4] relates to VERO cells. Set-up: method as in doi:10.1039/C9NJ02589H. Conditions: ref [42], read-out: IC50 VERO ± SD; cited from earlier work.
The subject of assay [5] is Caenorhabditis elegans Bristol strain N2. Put plainly: In vivo toxicity on C. elegans (motility, viability, development). Particulars: C. elegans L4, 2 µM, positive control. On the procedure:
The wild-type Caenorhabditis elegans (C. elegans) Bristol strain N2 and Escherichia coli (E. coli) OP50 strain were obtained from the Caenorhabditis Genomics Center (Minneapolis, MN, USA). Worms were maintained under standard conditions at 20 °C on Nematode Growth Media (NGM) agar plates seeded with E. coli OP50 as a source of food as previously described. The method used to assess toxicity is based on worm motility according to previously described. Briefly, the locomotor activity recording system, WMicrotracker^TM ONE (PhylumTech, Santa Fe, Argentina) detects infrared microbeam interruptions. Synchronized L4 C. elegans worms were removed from culture plates and washed three times with M9 buffer (3 g KH2PO4; 6 g Na2HPO4; 5 g NaCl; 1 mL 1 M MgSO4 per liter) by centrifugation at 1000 g. Worms in M9 1% DMSO were plated in 96-well flat microtiter plates (Deltalab, Barcelona, Spain). Approximately 70 worms per well were seeded in 60 µL M9 buffer containing 1% DMSO and their basal movement was measured for 30 min to normalize the movement activity for each well at the beginning of the assay. Then, compound [V^VO(IN-2H)(L2-H)] dissolved in M9 buffer 1% DMSO was added to a final concentration range of 6.5–100 µM in a final volume of 100 µL per well. […] The motility using WMicrotracker^TM ONE was measured for 18 h. […]

Read-outs that look alike come from different tables or passages of the source.

What is called IC50 is the point on the concentration scale where inhibition reaches its midpoint. For `O=C(N/N=C/c1c(O)ccc2ccccc12)c1ccncc1` [IN], the IC50 in the assay with VERO cells [1] is 22.6 ± 3.7 µM; in assay [2] (CL Brener strain), > 20 µM; in assay [3] (CL Brener strain, cell-derived), > 20000 nM. The “activity on epimastigotes (in words)” value in assay [2] is reported as “negligible activity”. In addition, in assay [3], the “activity on trypomastigotes (in words)” value was “negligible activity”. Moreover, the “log (KSV), Stern–Volmer constant for competitive binding to {DNA-EB} adduct” value with calf thymus DNA (ctDNA) was 4.29.

Take `Oc1cccc2cccnc12` [L0]: the half-maximal inhibitory concentration (IC50) in assay [2] is 9.42 ± 2.23 µM; in assay [3], 470 ± 70 nM; in the assay on VERO cells [4] it was 10.1 ± 3.9 µM.

On to `Oc1c(Cl)cc(Cl)c2cccnc12` [L1, 5,7-dichloro-8-hydroxyquinolne], for which the IC50 was 7.17 ± 1.07 µM in assay [2] (CL Brener strain); 2250 ± 950 nM in assay [3] (CL Brener strain, cell-derived); 66.5 ± 13.1 µM with VERO cells [4].

Turning to `Oc1c(I)cc(Cl)c2cccnc12` [L2, 5-chloro-7-iodo-8-hydroxyquinoline], the half-maximal inhibitory concentration (IC50) in assay [2] (CL Brener strain) is 2.76 ± 0.52 µM; in assay [3] (CL Brener strain, cell-derived), 400 ± 80 nM; with VERO cells [4], 64.7 ± 9.1 µM. In addition, in the assay with calf thymus DNA (ctDNA), the “log (KSV), Stern–Volmer constant for competitive binding to {DNA-EB} adduct” value came out at 4.68.

On to `Oc1c(I)cc(I)c2cccnc12` [L3], for which the half-maximal inhibitory concentration (IC50) was 2.17 ± 0.35 µM in assay [2] (CL Brener strain); 1100 ± 880 nM in assay [3] (CL Brener strain, cell-derived); 75.5 ± 16.3 µM in the assay on VERO cells [4].

For the molecule `O=[N+]([O-])c1ccc(O)c2ncccc12` [L4], the IC50 in assay [2] (CL Brener strain) is 2.58 ± 0.56 µM; in assay [3] (CL Brener strain, cell-derived), 1010 ± 730 nM; with VERO cells [4], 12.5 ± 4.5 µM.

For the molecule `CC1CS(=O)(=O)CCN1/N=C/c1ccc([N+](=O)[O-])o1` (centres unmarked) [Nifurtimox], the IC50 was 3.68 ± 0.71 µM in assay [2] (CL Brener strain); 20100 ± 2860 nM in assay [3] (CL Brener strain, cell-derived); 998 ± 90.6 µM in the assay on VERO cells [4].

Turning to ivermectin, the “effect on worm motility” value in assay [5] is on record as “reduced motility to zero”.
